Data as given in patent publication US5691372A, “Oxygenated-Heterocycle containing sulfonamide inhibitors of aspartyl protease” (Vertex Pharmaceuticals Incorporated, priority 1995, dated 1997).

Legend:
[1] = molecular target: HIV-1 protease (Human immunodeficiency virus type 1 group M subtype B, UniProt P04585); assay: inhibition constants against HIV-1 protease (method of Pennington et al.); format: biochemical
Excerpt: We have measured the inhibition constants of each compound against HIV-1 protease using the method described essentially by M. W. Pennington et al., Peptides 1990, Gimet, E. and D. Andrew, Eds., Escom; Leiden, Netherlands (1990).
We measured the inhibition constants of the compounds listed in Table II against HIV-1 protease using the above-cited method of Pennington et al.

[2] = tested on: HIVIIIb in CCRM-CEM cells; assay: anti-viral potency in CCRM-CEM cells acutely infected with HIVIIIb, extracellular p24 antigen (method of Meek et al.); format: cell-based, HIV-1; CD4+ human T-cell lymphoma cells; conditions: Human immunodeficiency virus 1
Protocol: Compounds of formula I were tested for their antiviral potency in several virological assays. In the first assay, the compounds were added as a solution in dimethylsulfoxide (DMSO) to a test cell culture of CCRM-CEM cells, a strain of CD4^+ human T-cell lymphoma cells, previously acutely infected with […] using standard protocols (see Meek, T. D. et al., "Inhibition of HIV-1 protease in infected T-lymphocytes by synthetic peptide analogues", Nature, 343, p. 90 (1990). Preferred compounds are those which are able to inhibit 90% of viral infectivity at a concentration of 1 μM or less. More preferred compounds are those which are able to inhibit 90% of viral infectivity at a concentration of 100 nM or less. The effect of the compounds on inhibiting the replication of the virus was measured by determining the HIV extracellular p24 antigen concentration using a commercial enzyme immunoassay (obtained from Coulter Corporation, Hialeah, Fla.). […] Ki and IC90 values are expressed in nM. The designation "ND" is used where a given compound was not tested.

| Compound | Ki [1] [nM] | IC90 [2] [nM] |
| --- | --- | --- |
| COc1ccc(S(=O)(=O)N(CC2CCCC2)C[C@@H](O)[C@H](Cc2ccccc2)NC(=O)OC2COCOC2)cc1 [Compound 1, N-Cyclopentylmethyl-N-((2 syn, 3S)-2-hydroxy-4-phenyl-3-(1,3-dioxan-5-yl-oxycarbonylamino))butyl-4-methoxy-benzenesulfonamide] | < 0.1 | 5 |
| COc1ccc(S(=O)(=O)N(CC2CCCC2)C[C@@H](O)[C@H](Cc2ccccc2)NC(=O)OCC2COCO2)cc1 (stereo partly drawn) [Compound 2, N-Cyclopentylmethyl-N-((2 syn, 3S)-2-hydroxy-4-phenyl-3-(1,3-dioxolan-4-yl-methoxycarbonylamino))butyl-4-methoxy-benzenesulfonamide] | 0.3 | – |
| Nc1ccc(S(=O)(=O)N(CC2CCCC2)C[C@@H](O)[C@H](Cc2ccccc2)NC(=O)OC2COCOC2)cc1 [Compound 3, 4-Amino-N-cyclopentylmethyl-N-((2 syn, 3S)-2-hydroxy-4-phenyl-3-(1,3-dioxan-5-yl-oxycarbonylamino))butyl-benzenesulfonamide] | 0.1 | 4 |
| CC(C)CN(C[C@@H](O)[C@H](Cc1ccccc1)NC(=O)OC1COCOC1)S(=O)(=O)c1ccc(N)cc1 [Compound 4, 4-Amino-N-((2 syn, 3S)-2-hydroxy-4-phenyl-3-1,3-dioxan-5-yl-oxycarbonylamino)butyl-N-isobutyl-benzenesulfonamide] | 0.3 | 12 |
| Nc1cccc(S(=O)(=O)N(CC2CCCC2)C[C@@H](O)[C@H](Cc2ccccc2)NC(=O)OC2COCOC2)c1 [Compound 6, 3-Amino-N-cyclopentylmethyl-N-((2 syn, 3S)-2-hydroxy-4-phenyl-3-(1,3-dioxan-5-yl-oxycarbonylamino))butyl-benzenesulfonamide] | < 0.1 | 5 |
| CC(=O)Nc1ccc(S(=O)(=O)N(C)C[C@@H](O)[C@H](Cc2ccccc2)NC(=O)OC2COC3OCCCC23)cc1 (stereo partly drawn) [Compound 11, 4-Acetamido-N-((2 syn, 3S)-2-hydroxy-4-phenyl-3-tetrahydropyrano-[2,3-b]tetrahydrofuran-4-yloxycarbonylamino)butyl-N-methyl-benzenesulfonamide] | 160 | – |
| CC(C)C[C@H](NC(=O)OC1COC2OCCCC12)[C@H](O)CN(CC1CCCCC1)S(=O)(=O)c1cccc(N)c1 (stereo partly shown) [Compound 12] | 1.5 | – |
| CC1(OC(=O)N[C@@H](Cc2ccccc2)[C@H](O)CN(CC2CCCC2)S(=O)(=O)c2cccc(N)c2)CCOC1 (stereo partly drawn) [Compound 15, 3-Amino-N-cyclopentylmethyl-N-((2 syn, 3S)-2-hydroxy-4-phenyl-3-(3-methyltetrahydrofuran-3-yl)oxycarbonylamino)butyl-benzenesulfonamide] | 0.4 | – |

Further lines, results first:

| Ki [1] [nM] | IC90 [2] [nM] | Compound |
| --- | --- | --- |
| < 0.1 | – | Nc1cccc(S(=O)(=O)N(CC2CCCC2)C[C@@H](O)[C@H](Cc2ccccc2)NC(=O)OC2COC3OCCCC23)c1 (single isomer, unassigned) [Compound 7] |
| < 0.1 | – | Nc1cccc(S(=O)(=O)N(CC2CCCC2)C[C@@H](O)[C@H](Cc2ccccc2)NC(=O)OC2COC3OCCCC23)c1 (single isomer, unassigned) [Compound 8] |
| 0.1 | – | CC(C)CN(C[C@@H](O)[C@H](Cc1ccccc1)NC(=O)OC1COC2OCCCC12)S(=O)(=O)c1cccc(N)c1 (single isomer, unassigned) [Compound 9] |
| < 0.1 | – | CC(C)CN(C[C@@H](O)[C@H](Cc1ccccc1)NC(=O)OC1COC2OCCCC12)S(=O)(=O)c1cccc(N)c1 (single isomer, unassigned) [Compound 10] |
| 0.15 | 7 | CC(C)CN(C[C@@H](O)[C@H](Cc1ccccc1)NC(=O)OC1COCOC1)S(=O)(=O)c1cccc(N)c1 [Compound 5, 3-Amino-N-((2 syn, 3S)-2-hydroxy-4-phenyl-3-1,3-dioxan-5-yl-oxycarbonylamino)butyl-N-isobutyl-benzenesulfonamide] |
| 1.5 | – | CC(C)CN(C[C@@H](O)[C@H](Cc1ccccc1)NC(=O)OC1(C)CCOC1)S(=O)(=O)c1cccc(N)c1 (stereo partly drawn) [Compound 16, 3-Amino-N-((2 syn, 3S)-2-hydroxy-4-phenyl-3-(3-methyltetrahydrofuran-3-yl)oxycarbonylamino)butyl-N-isobutyl-benzenesulfonamide] |
